From article PMC4552745, “Novel Gallate Triphenylphosphonium Derivatives with Potent Antichagasic Activity” (PLoS ONE, 2015)

Legend:
Trypanosoma cruzi = tested on: Trypanosoma cruzi; parameters: method as in PMID 2121515; conditions: blood contaminated with Trypanosoma cruzi; cited from earlier work
Trypanosoma brucei = tested on: Trypanosoma brucei; parameters: method as in PMID 9657042, PMID 9491765; conditions: Trypanosoma brucei models; cited from earlier work
VERO cells = assay: MTT reduction viability assay on VERO cells; type: cell-based; conditions: Chlorocebus sabaeus, 24 hours exposure, mean ± SD
Description: (§1) The effect of the drugs on parasite viability was evaluated using the tetrazolium salt (MTT) reduction assay. […] Alternatively, VERO cells attached to the surface of 96-well plates were washed and incubated with MTT (5 mg/mL). After incubation for 4 h at 37°C, the generated formazan crystals were dissolved with 100 μL of 10% (w/v) sodium dodecyl sulfate (SDS) in 0.01 M HCl. The plates were then incubated overnight at 37°C, and the optical density (OD) was determined using a microplate reader (Labsystems Multiskan MS, Finland) at 570 nm. Under these conditions, the OD is directly proportional to the number of viable cells in each well [33, 34]. All of the experiments were performed at least three times. […] The data from each experiment were plotted using the formazan absorbance versus the log of the concentration, and the plot was fitted to the dose-response (four-parameters) equation using the software Graph Pad Prism V5.0, obtaining the EC50 value per drug and per experiment. The data are expressed as the mean ± DS of the EC50s obtained from each experiment.

[1] = tested on: T. cruzi trypomastigotes (Y strain); assay: MTT reduction viability assay on isolated trypomastigotes; type: cell-based, Trypanosoma cruzi; conditions: for EC50: Trypanosoma cruzi, Y strain, 24 hours exposure, MTT assay, mean ± SD, read-out: EC50 T. cruzi trypomastigote; for Selectivity index (VERO/T. cruzi): ratio of EC50 VERO cells to EC50 T. cruzi trypomastigote; for potency relative to nifurtimox: trypomastigote viability, comparison of EC50
Description: as §1, with “Trypomastigotes (Y strain, DTU T. cruzi II) were obtained from infected VERO cells (Chlorocebus sabaeus kidney fibroblasts obtained from ATCC, ATCC number: CCL-81). The cells were exposed to trypomastigotes (Y strain) at a 3:1 density (trypomastigote:cell). The trypomastigotes were allowed to infect the cells for 24 h, and the supernatant was then extracted. The trypomastigotes were released from VERO cells at 4 days after infection. The parasites were harvested and collected for viability assays. The effect” for “The effect”

[2] = tested on: T. cruzi trypomastigotes (Y strain) mitochondrial permeability transition pore; assay: Mitochondrial permeability transition pore opening (calcein AM / CoCl2); type: cell-based, Trypanosoma cruzi; conditions: 5 μM, 1 hour, Fig 6B
Description: The opening of mitochondrial permeability transition pores was assessed using the calcein AM probe, adapting the method described by Huang et al (2014). Calcein-AM is a lipophilic probe that can enter the cell, including the mitochondria, and is then cleaved by cellular esterases, releasing the fluorescent probe calcein. T. cruzi trypomastigotes (Y strain, 5 x 10^6 parasites/mL) were stained with 100 nM calcein AM (Molecular Probes, Applied Biosytems, USA) and incubated at 37°C for 15 min in the presence of […] of CoCl2 to quench the cytosolic fluorescence of calcein. Then, the parasites were washed with PBS and resuspended in RPMI medium, without phenol red, supplemented with 0.3 mM of Ca^+2. The parasites were then seeded in 24-well plates and exposed to the different compounds (TPP^+-C8, TPP^+-C10, TPP^+-C11, and TPP^+-C12) at 1 or 5 μM for 1 hour. As a positive control, one group was exposed to ionomycin (0.5 μM). The samples were measured using a FACS Aria III flow cytometer (BD Biosciences, USA) with the 494/517 filter to detect calcein fluorescence. For every measurement, 5,000 events were recorded. The raw flow cytometry data were analyzed using FACSDiva 6.1 software (BD Biosciences). The results were analyzed using the median fluorescence intensity (MFI) from the frequency histograms. Thus, we used the median intensity of the control group (parasites incubated with calcein AM and CoCl2) to establish 100% of mitochondrial fluorescence, thereby establishing percent ratios between the treatment groups and the control.

[3] = tested on: T. cruzi in infected RAW 264.7 cells; assay: Parasite DNA load by real-time PCR in infected RAW cells; type: cell-based, Trypanosoma cruzi; conditions: infected RAW cells, 48 hours after treatment, Fig 4
Excerpt: DNA from infected RAW cells (murine macrophages, ATCC number: TIB-71) was isolated using Wizard Genomic DNA Purification Kit (Promega, USA) following the manufacturer’s instructions. DNA was quantified through […] absorbance measurements using a Varioskan spectrophotometer (Thermo Scientific, USA). To evaluate the parasite DNA load, we used a TaqMan-Duplex system, as described previously. To amplify an 84-bp T. cruzi satellite DNA sequence, we used the following primers: TcSt 4-Fw (5’-[…]-3’) and TcSt 1-Rev (5’-[…]-3’) and the TcSt-1 probe (5’-FAM-[…]-BHQ-1-3’). As an endogenous control, we used the Mus-F (5’-[…]-3’) and Mus-R (5’-[…]-3’) primers coupled with the MM-1 probe (5’-HEX-AAAGCATCTGCCTCCG-BHQ-1-3’) to amplify a 67-bp Mus musculus GAPDH sequence. The primers and probes were designed using Primer Express 3.0 Software (Applied Biosystems, USA) and manufactured by Integrated DNA Technologies (Coralville, IA, USA). The PCR reactions were performed using an ABI7300 real-time thermocycler (Applied Biosystems, USA). […] ROX was used as a reference dye. For both TaqMan assays, the thermal cycle consisted of a polymerase activation step carried out at 95°C for 10 min (one cycle) and a two-step amplification phase: 95°C for 15 s and 55°C for 45 s (40 cycles). Fluorescence was measured at the end of each amplification cycle. The data were analyzed using 7300 System SDS software with the SDS relative quantitation plug-in (Applied Biosystems, USA). All of the data were analyzed by the 2^-∆∆CT method, comparing the CTs of the T. cruzi gene versus that of GAPDH as well as comparing all of the samples with the controls. The parasite load is expressed as the relative DNA load compared with the controls.

Leishmania brasiliensis = tested on: Leishmania brasiliensis; parameters: method as in PMID 25144225; conditions: in vitro; cited from earlier work
T. cruzi epimastigotes = tested on: T. cruzi epimastigotes; parameters: method as in PMID 17673202; conditions: cited from earlier work

EC50 [1]	SMILES	concentration range at which effects are exerted (Trypanosoma cruzi)	EC50 (Trypanosoma brucei)	EC50 (VERO cells)	Selectivity index (VERO/T. cruzi) [1]	mitochondrial calcein fluorescence (median fluorescence intensity) [2]	parasite load (qPCR) [3]	potency relative to nifurtimox [1]	concentration at which the effect on viability is reached (Leishmania brasiliensis)	concentration at which the antiproliferative effect is observed (T. cruzi epimastigotes)
	O=C(O)c1cc(O)c(O)c(O)c1 [GA, Gallic acid]	millimolar range	> 30 µM							
4.1 ± 0.9 µM	CC1CS(=O)(=O)CCN1/N=C/c1ccc([N+](=O)[O-])o1 (stereo not drawn) [Nifurtimox, reference compound]			> 100 µM	> 24					
	O=C(O[C@@H]1Cc2c(O)cc(O)cc2O[C@@H]1c1cc(O)c(O)c(O)c1)c1cc(O)c(O)c(O)c1 [EGCg, (-)-epigallocatechin 3-O-gallate]								over 60 μM	over 500 μM
4.8 ± 0.9 µM	O=C(OCCCCCCCC[P+](c1ccccc1)(c1ccccc1)c1ccccc1)c1cc(O)c(O)c(O)c1.[Br-] [TPP^+-C8, triphenyl(8-((3,4,5-trihydroxybenzoyl)oxy)-octyl) phosphonium bromide]			> 100 µM	> 21		the lowest concentrations of TPP^+-C8 increased the parasite load	almost equal in potency to nifurtimox		

SMILES	EC50 [1]	concentration range at which effects are exerted (Trypanosoma cruzi)	EC50 (Trypanosoma brucei)	EC50 (VERO cells)	Selectivity index (VERO/T. cruzi) [1]	mitochondrial calcein fluorescence (median fluorescence intensity) [2]	parasite load (qPCR) [3]	potency relative to nifurtimox [1]	concentration at which the effect on viability is reached (Leishmania brasiliensis)	concentration at which the antiproliferative effect is observed (T. cruzi epimastigotes)
O=C(OCCCCCCCCCCC[P+](c1ccccc1)(c1ccccc1)c1ccccc1)c1cc(O)c(O)c(O)c1.[Br-] [TPP^+-C11, triphenyl(11-((3,4,5-trihydroxybenzoyl)oxy)-undecyl) phosphonium bromide]	9.2 ± 0.1 µM			> 100 µM	> 11	41 % of the control	reduced the parasite load in a concentration-dependent manner	almost equal in potency to nifurtimox		
